Molecular target: S. aureus (SAU) GyrB ATPase (Staphylococcus aureus, UniProt P0A0K8)
Assay: S. aureus GyrB ATPase inhibition, ammonium molybdate/malachite green phosphate detection assay
Assay type: biochemical
Conditions: read-out: S. aureus (SAU) GyrB ATPase % Inhibition, compound concentration 12.5 μM
Description: Compounds were tested for inhibition of GyrB ATPase activity using an ammonium molybdate/malachite green-based phosphate detection assay (Lanzetta, P. A., L. J. Alvarez, P. S. Reinach, and O. A. Candia, 1979, 100: 95-97). Assays were performed in multiwell plates in 100 μl reactions containing: 50 mM Hepes buffer pH 7.5, 75 mM ammonium acetate, 8.0 mM magnesium chloride, 1.0 mM ethylenediaminetetraacetic acid, 5% glycerol, 2 mM 1,4-Dithio-DL-threitol, 400 nM bovine serum albumin, 5 μg/ml sheared salmon sperm DNA, 1.25 nM E. coli GyrA, 1.25 nM S. aureus GyrB, 500 μM ATP, and compound in dimethylsulfoxide. Reactions were quenched with 150 μl of ammonium molybdate/malachite green detection reagent containing 1.2 mM malachite green hydrochloride, 8.5 mM ammonium molybdate tetrahydrate, and 1 M hydrochloric acid. Plates were read in an absorbance plate reader at 650 nm and percent inhibition values were calculated using dimethylsulfoxide (2%)-containing reactions as 0% inhibition and novobiocin-containing (2 μM) reactions as 100% inhibition controls. Compound potency was based on IC50 measurements determined from reactions performed in the presence of 10 different compound concentrations.

S. aureus (SAU) GyrB ATPase, sequence (P0A0K8 whole entry): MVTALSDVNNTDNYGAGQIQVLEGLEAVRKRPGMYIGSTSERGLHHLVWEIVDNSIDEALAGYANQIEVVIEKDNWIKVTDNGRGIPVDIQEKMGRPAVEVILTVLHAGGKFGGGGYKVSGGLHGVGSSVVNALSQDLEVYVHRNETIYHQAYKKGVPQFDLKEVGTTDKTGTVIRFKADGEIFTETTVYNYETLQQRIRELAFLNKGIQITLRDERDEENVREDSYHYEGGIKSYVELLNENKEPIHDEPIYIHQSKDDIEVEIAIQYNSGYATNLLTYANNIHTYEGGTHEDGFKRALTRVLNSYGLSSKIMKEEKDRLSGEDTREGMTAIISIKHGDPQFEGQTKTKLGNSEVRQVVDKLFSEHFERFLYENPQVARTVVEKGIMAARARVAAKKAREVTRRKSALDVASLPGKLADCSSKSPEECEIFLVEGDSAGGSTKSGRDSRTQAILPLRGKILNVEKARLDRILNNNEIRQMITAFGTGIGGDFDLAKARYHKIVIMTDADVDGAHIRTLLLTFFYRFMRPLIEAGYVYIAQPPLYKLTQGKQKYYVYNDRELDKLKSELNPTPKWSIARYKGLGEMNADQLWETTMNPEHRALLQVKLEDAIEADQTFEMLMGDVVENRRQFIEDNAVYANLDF
S. aureus (SAU) GyrB ATPase, sequence (P0AES4 whole entry, further chain): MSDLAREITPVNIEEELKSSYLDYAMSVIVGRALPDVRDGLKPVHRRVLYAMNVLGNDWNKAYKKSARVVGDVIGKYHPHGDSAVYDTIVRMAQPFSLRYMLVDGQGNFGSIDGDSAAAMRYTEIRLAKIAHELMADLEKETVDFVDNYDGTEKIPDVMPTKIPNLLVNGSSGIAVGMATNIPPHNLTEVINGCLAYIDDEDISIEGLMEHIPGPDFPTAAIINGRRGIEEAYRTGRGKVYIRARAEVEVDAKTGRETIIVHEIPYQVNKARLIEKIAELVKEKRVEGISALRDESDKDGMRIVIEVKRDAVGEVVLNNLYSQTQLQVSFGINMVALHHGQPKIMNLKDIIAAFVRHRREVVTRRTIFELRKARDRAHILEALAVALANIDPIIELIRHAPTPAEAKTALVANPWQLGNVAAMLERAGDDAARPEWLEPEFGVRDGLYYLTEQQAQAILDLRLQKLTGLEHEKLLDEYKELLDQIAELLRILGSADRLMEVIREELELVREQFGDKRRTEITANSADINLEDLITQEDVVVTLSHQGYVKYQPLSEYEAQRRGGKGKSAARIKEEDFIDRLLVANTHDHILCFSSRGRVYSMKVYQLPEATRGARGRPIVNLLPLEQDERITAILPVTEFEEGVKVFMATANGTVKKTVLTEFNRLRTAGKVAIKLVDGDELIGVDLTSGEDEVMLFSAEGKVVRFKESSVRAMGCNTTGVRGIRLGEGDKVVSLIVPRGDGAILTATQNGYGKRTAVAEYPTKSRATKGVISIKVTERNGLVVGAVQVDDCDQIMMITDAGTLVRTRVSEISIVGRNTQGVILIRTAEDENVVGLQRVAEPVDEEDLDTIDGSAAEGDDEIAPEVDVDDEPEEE

CCNC(=O)Nc1ccc(-c2nc(C(=O)N[C@@H](C)COC)c(C(=O)O)s2)cn1 [Example 92, 2-(6-{[(ethylamino)carbonyl]amino}pyridin-3-yl)-4-({[(1S)-2-methoxy-1-methylethyl]amino}carbonyl)-1,3-thiazole-5-carboxylic acid]
inhibition at 12.5 µM: 101%

CCNC(=O)Nc1ccc(-c2nc(-c3nccn3C)c(C(=O)O)s2)cn1 [Example 93, 2-(6-{[(Ethylamino)carbonyl]amino}pyridin-3-yl)-4-(1-methyl-1H-imidazol-2-yl)-1,3-thiazole-5-carboxylic acid]
inhibition at 12.5 µM: 99.1%

CCNC(=O)Nc1ccc(-c2nc(C(=O)NC(C)(C)C)c(C(=O)O)s2)cn1 [Example 94, 4-[(tert-Butylamino)carbonyl]-2-(6-{[(ethylamino)carbonyl]amino}pyridin-3-yl)-1,3-thiazole-5-carboxylic acid]
inhibition at 12.5 µM: 98.9%

CCNC(=O)Nc1cc(-c2ccccc2)c(-c2cncc(C(=O)O)c2)cn1 [Example 95, 6′-{[(Ethylamino)carbonyl]amino}-4′-phenyl-3,3′-bipyridine-5-carboxylic acid]
inhibition at 12.5 µM: 100%

CCNC(=O)Nc1cc(-c2ccccc2)c(-c2cccc(C(=O)O)c2)cn1 [Example 96, 3-(6-{[(Ethylamino)carbonyl]amino}-4-phenylpyridin-3-yl)benzoic acid]
inhibition at 12.5 µM: 95.4%

CCNC(=O)Nc1cc(-c2ccccc2)c(-c2ncc(C(=O)O)s2)cn1 [Example 97, 2-(6-{[(Ethylamino)carbonyl]amino}-4-phenylpyridin-3-yl)-1,3-thiazole-5-carboxylic acid]
inhibition at 12.5 µM: 101%

CCCCNC(=O)c1nc(-c2cnc(NC(=O)NCC)cc2-c2ccccc2)sc1C(=O)O [Example 98, 4-[(Butylamino)carbonyl]-2-(6-{[(ethylamino)carbonyl]amino}-4-phenylpyridin-3-yl)-1,3-thiazole-5-carboxylic acid]
inhibition at 12.5 µM: 99.3%

CCNC(=O)Nc1cc(-c2nc(CC)cs2)c(-c2cncc(C(=O)O)c2)cn1 [Example 99, 6′-{[(Ethylamino)carbonyl]amino}-4′-(4-ethyl-1,3-thiazol-2-yl)-3,3′-bipyridine-5-carboxylic acid]
inhibition at 12.5 µM: 102%

CCNC(=O)Nc1cc(-c2nc(CC)cs2)c(-c2cccc(C(=O)O)c2)cn1 [Example 100, 3-[6-{[(Ethylamino)carbonyl]amino}-4-(4-ethyl-1,3-thiazol-2-yl)pyridin-3-yl]benzoic acid]
inhibition at 12.5 µM: 99.7%

CCNC(=O)Nc1cc(-c2nc(C(F)(F)F)cs2)c(-c2cncc(C(=O)O)c2)cn1 [Example 101, 6′-{[(Ethylamino)carbonyl]amino}-4′-[4-(trifluoromethyl)-1,3-thiazol-2-yl]-3,3′-bipyridine-5-carboxylic acid]
inhibition at 12.5 µM: 98.3%

CCNC(=O)Nc1cc(-c2nc(C(F)(F)F)cs2)c(-c2ncc(C(=O)O)s2)cn1 [Example 102, 2-{6-{[(Ethylamino)carbonyl]amino}-4-[4-(trifluoromethyl)-1,3-thiazol-2-yl]pyridin-3-yl}-1,3-thiazole-5-carboxylic acid]
inhibition at 12.5 µM: 98.2%

CCNC(=O)Nc1cc(-c2cccnc2)c(-c2cncc(C(=O)O)c2)cn1 [Example 103, 6′-{[(Ethylamino)carbonyl]amino}-3,3′:4′,3″-terpyridine-5-carboxylic acid]
inhibition at 12.5 µM: 96%

CCNC(=O)Nc1cc(-c2ccc(F)nc2)c(-c2cncc(C(=O)O)c2)cn1 [Example 104]
inhibition at 12.5 µM: 89.9%

CC(C)NC(=O)Nc1cc(-c2nc(C(F)(F)F)cs2)c(-c2cncc(C(=O)O)c2)cn1 [Example 105, 6′-{[(Isopropylamino)arbonyl]amino}-4′-[4-(trifluoromethyl)-1,3-thiazol-2-yl]-3,3′-bipyridine-5-carboxylic acid]
inhibition at 12.5 µM: 94.8%

CCC(C)NC(=O)Nc1cc(-c2nc(C(F)(F)F)cs2)c(-c2cncc(C(=O)O)c2)cn1 (centres unmarked) [Example 106, 6′-{[(Sec-butylamino)carbonyl]amino}-4′-[4-(trifluoromethyl)-1,3-thiazol-2-yl]-3,3′-bipyridine-5-carboxylic acid]
inhibition at 12.5 µM: 93.1%

CCNC(=O)Nc1cc(-c2nc(CC)cs2)c(-c2cncc(C(=O)NC)c2)cn1 [Example 107, 6′-{[(Ethylamino)carbonyl]amino}-4′-(4-ethyl-1,3-thiazol-2-yl)-N-methyl-3,3′-bipyridine-5-carboxamide]
inhibition at 12.5 µM: 84%

CCCCNC(=O)c1nc(-c2ccc(NC(=O)NCC)nc2)sc1C(=O)NC [Example 108, N^4-Butyl-2-(6-{[(ethylamino)carbonyl]amino}pyridin-3-yl)-N^5-methyl-1,3-thiazole-4,5-dicarboxamide]
inhibition at 12.5 µM: 100%

CCCCNC(=O)c1nc(-c2ccc(NC(=O)NCC)nc2)sc1C(=O)N(C)C [Example 109, N^4-Butyl-2-(6-{[(ethylamino)carbonyl]amino}pyridin-3-yl)-N^5,N^5-dimethyl-1,3-thiazole-4,5-dicarboxamide]
inhibition at 12.5 µM: 99.5%

CCNC(=O)Nc1ccc(-c2nc(C(=O)NC(C)(C)C)c(C(=O)N(C)C)s2)cn1 [Example 110, N^4-(tert-Butyl)-2-(6-{[(ethylamino)carbonyl]amino}pyridin-3-yl)-N^5,N^5-dimethyl-1,3-thiazole-4,5-dicarboxamide]
inhibition at 12.5 µM: 101%

CCNC(=O)Nc1ccc(-c2nc(C(=O)NC(C)(C)C)c(C(N)=O)s2)cn1 [Example 111, N^4-(tert-Butyl)-2-(6-{[(ethylamino)carbonyl]amino}pyridin-3-yl)-1,3-thiazole-4,5-dicarboxamide]
inhibition at 12.5 µM: 101%

CCNC(=O)Nc1ccc(-c2nc(-c3nccn3C)c(C(=O)N(C)C)s2)cn1 [Example 112, 2-(6-{[(Ethylamino)carbonyl]amino}pyridin-3-yl)-N,N-dimethyl-4-(1-methyl-1H-imidazol-2-yl)-1,3-thiazole-5-carboxamide]
inhibition at 12.5 µM: 99.9%

CCNC(=O)Nc1ccc(-c2nc(-c3ncnn3C)c(C(=O)N(C)C)s2)cn1 [Example 113, 2-(6-{[(Ethylamino)carbonyl]amino}pyridin-3-yl)-N,N-dimethyl-4-(1-methyl-1H-1,2,4-triazol-5-yl)-1,3-thiazole-5-carboxamide]
inhibition at 12.5 µM: 102%

CCNC(=O)Nc1cc(-c2ccccc2)c(-c2cncc(C(N)=O)c2)cn1 [Example 114, 6′-{[(Ethylamino)carbonyl]amino}-4′-phenyl-3,3′-bipyridine-5-carboxamide]
inhibition at 12.5 µM: 105%

CCNC(=O)Nc1ccc(-c2nc(C(=O)NC)c(C(N)=O)s2)cn1 [Example 115, 2-(6-{[(Ethylamino)carbonyl]amino}pyridin-3-yl)-N^4-methyl-1,3-thiazole-4,5-dicarboxamide]
inhibition at 12.5 µM: 99.2%

CCNC(=O)Nc1ccc(-c2nc(C(=O)NCCOC)c(C(N)=O)s2)cn1 [Example 116, 2-(6-{[(Ethylamino)carbonyl]amino}pyridin-3-yl)-N^4-(2-methoxyethyl)-1,3-thiazole-4,5-dicarboxamide]
inhibition at 12.5 µM: 98.7%

CCNC(=O)Nc1ccc(-c2nc(C(=O)N[C@@H](C)COC)c(C(N)=O)s2)cn1 [Example 117, 2-(6-{[(Ethylamino)carbonyl]amino}pyridin-3-yl)-N^4-[(1S)-2-methoxy-1-methylethyl]-1,3-thiazole-4,5-dicarboxamide]
inhibition at 12.5 µM: 101%

CCNC(=O)Nc1ccc(-c2nc(C(=O)N[C@@H](C)COC)c(C(=O)N(C)C)s2)cn1 [Example 118, 2-(6-{[(Ethylamino)carbonyl]amino}pyridin-3-yl)-N^4-[(1S)-2-methoxy-1-methylethyl]-N^5,N^5-dimethyl-1,3-thiazole-4,5-dicarboxamide]
inhibition at 12.5 µM: 102%

CCNC(=O)Nc1cc(-c2nc(CC)cs2)c(-c2cncc(C(N)=O)c2)cn1 [Example 119, 6′-{[(Ethylamino)carbonyl]amino}-4′-(4-ethyl-1,3-thiazol-2-yl)-3,3′-bipyridine-5-carboxamide]
inhibition at 12.5 µM: 103%

CCNC(=O)Nc1cc(-c2nc(C(F)(F)F)cs2)c(-c2cncc(C(N)=O)c2)cn1 [Example 121, 6′-{[(Ethylamino)carbonyl]amino}-4′-[4-(trifluoromethyl)-1,3-thiazol-2-yl]-3,3′-bipyridine-5-carboxamide]
inhibition at 12.5 µM: 81.8%

CCNC(=O)Nc1cc(-c2nc(C(F)(F)F)cs2)c(-c2cncc(C(=O)NC)c2)cn1 [Example 122, 6′-{[(Ethylamino)carbonyl]amino}-N-methyl-4′-[4-(trifluoromethyl)-1,3-thiazol-2-yl]-3,3′-bipyridine-5-carboxamide]
inhibition at 12.5 µM: 85.8%

CCNC(=O)Nc1cc(-c2nc(C(F)(F)F)cs2)c(-c2cncc(C(=O)NC(C)(C)C)c2)cn1 [Example 123, N-(tert-Butyl)-6′-{[(ethylamino)carbonyl]amino}-4′-[4-(trifluoromethyl)-1,3-thiazol-2-yl]-3,3′-bipyridine-5-carboxamide]
inhibition at 12.5 µM: 96.2%

CCNC(=O)Nc1cc(-c2nc(C(F)(F)F)cs2)c(-c2cncc(C(=O)N[C@@H](C)COC)c2)cn1 [Example 124, 6′-{[(Ethylamino)carbonyl]amino}-N-[(1S)-2-methoxy-1-methylethyl]-4′-[4-(trifluoromethyl)-1,3-thiazol-2-yl]-3,3′-bipyridine-5-carboxamide]
inhibition at 12.5 µM: 95.1%
